According to PubChem BioAssay AID488792 (NMMLSC, 2010):
The source made the active and inactive calls.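 Rule for the calls: active = EC50 at or below 33 microM; inactive = the rest.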

system: S. cerevisiae AGP1-GFP strain, flow cytometry fluorescence, 3 h; experiment: potency of screening hits on AGP1-GFP expression, SAR follow-up, cell-based, flow cytometry, S. cerevisiae (AID 488792)

Row | EC50 | SMILES
1 | 2.44 µM | O=C(OCn1ncc(Br)c(Br)c1=O)c1c(F)cccc1F
2 | 312 µM (inactive) | Nc1nc(Nc2cccc(Cl)c2)nc(Nc2cccc(F)c2)c1[N+](=O)[O-]
3 | 34.3 µM (inactive) | O=[N+]([O-])c1cc(O)c2ncccc2c1
4 | 35 µM (inactive) | COc1cccc(Nc2nc(N)c([N+](=O)[O-])c(Nc3cccc(F)c3)n2)c1
5 | 36.5 µM (inactive) | O=C(OCC(=O)N1CCN(C(=O)c2ccco2)CC1)c1cc(-c2cccc(Br)c2)nc2ccccc12
6 | 102 µM (inactive) | CC(Oc1ccc(Br)cc1)C(=O)Nc1nc(-c2ccccn2)cs1 (stereo not given)
7 | 63.1 µM (inactive) | CCC(C)Nc1nc(N)c([N+](=O)[O-])c(Nc2cccc(F)c2)n1 (stereo not given)
8 | 4.42 µM | Cc1ccc(S(=O)(=O)c2ccc([N+](=O)[O-])cn2)cc1
9 | 174 µM (inactive) | CC(C)(C)n1nc(-c2ccc(F)cc2)c2c(N)ncnc21
10 | 105 µM (inactive) | Cn1ncc(S(=O)(=O)Cc2ccccc2)c(Cl)c1=O
11 | 263 µM (inactive) | Nc1cc(Oc2cccc(Cl)c2)nc(NCc2ccccc2)n1
12 | 5.98 µM | O=[N+]([O-])c1ccc(O)c2ncccc12
13 | 2.09 µM | CC(C)(C)C(=O)C(Cl)C(=O)Nc1ccccc1 (stereo not given)
14 | 60.4 µM (inactive) | CC(=O)SC(C[N+](=O)[O-])c1cn(C(C)=O)c2ccccc12 (stereo not given)
15 | 140 µM (inactive) | Nc1nc(Nc2ccccc2)nc(Nc2cccc(F)c2)c1[N+](=O)[O-]
16 | 32.2 µM | CCN(CC)C(=O)Oc1ccnc2cc(Cl)ccc12
17 | 34.8 µM (inactive) | O=C(Oc1c(Cl)cc(Cl)c2cccnc12)c1cccc([N+](=O)[O-])c1
18 | 1.25 µM | O=C(OCC(=O)N1CCN(C(=O)c2ccco2)CC1)c1cc(-c2ccc(F)cc2)nc2ccccc12

Row | EC50 | SMILES
19 | 0.46 µM | O=C(c1ccc(C(=O)N2CCCc3ccccc32)s1)N1CCCc2ccccc21
20 | 300 µM (inactive) | Cc1ccc(-c2nn(C(C)(C)C)c3ncnc(N)c23)cc1
21 | 34.1 µM (inactive) | C/C(=N\NC(=O)c1cccc(Br)c1)c1ccccn1
22 | 14.1 µM | CN1CCN(C(=O)c2cc(COc3c(F)cccc3F)on2)CC1c1ccccc1 (stereo not given)
23 | 98.6 µM (inactive) | Cc1ccc(C(c2cc(Cl)c3cccnc3c2O)N2CCN(C)CC2)cc1 (stereo not given)
24 | 10.8 µM | CC(C)(C)n1nc(-c2ccc(Cl)cc2)c2c(N)ncnc21
25 | 4.22 µM | CC(=O)c1ccc(N2CCN(C(=O)c3ccc(Br)cc3)CC2)c(F)c1
26 | 1.74 µM | CCOC(=O)CS(=O)(=O)c1nc(-c2ccccc2)cc(C(F)(F)F)n1
27 | 72.9 µM (inactive) | O=C(Nc1nc(-c2ccccn2)cs1)C1COc2ccccc2O1 (stereo not given)
28 | 10.7 µM | CNc1nc(N)c([N+](=O)[O-])c(Nc2cccc(F)c2)n1
29 | 1.41 µM | CCOC(=O)CCS(=O)(=O)c1nc(-c2ccccc2)cc(C(F)(F)F)n1
30 | 137 µM (inactive) | CC(=O)Nc1ncnc2c1c(-c1ccc(Cl)cc1)nn2C(C)(C)C
31 | 62 µM (inactive) | O=[N+]([O-])c1cc(Cl)c2cccnc2c1O
32 | 57.5 µM (inactive) | Cc1cc(C(=O)Nc2nc(-c3ccccn3)cs2)ccc1[N+](=O)[O-]
33 | 34.5 µM (inactive) | CC(C)(C)C(=O)NC(=S)NNC(=O)c1ccc(-c2ccccc2)cc1
34 | 0.3 µM | COC(=O)CCS(=O)(=O)c1nc(-c2ccccc2)cc(C(F)(F)F)n1
35 | 0.24 µM | Cc1ccc2nc(Cl)c3nnnn3c2c1
